In patent US6673899B2, “Sodium ion-driven chloride /bi-carbonate exchanger” (JCR Pharmaceuticals Co., Ltd., priority 2000, dated 2004):

Legend:
[1] = biological target: T1, NCBE (Na+-driven Cl-/HCO3- exchanger) (Mus musculus, UniProt Q5DTL9); experiment: 22Na+ uptake in NCBE cRNA-injected Xenopus laevis oocytes; assay type: cell-based
T1 construct: expressed in transfected cells; host or cells: Xenopus laevis oocytes injected with NCBE cRNA (pSD5, SP6 transcript)
T1 sequence (Q5DTL9 1-1088 isoform Q5DTL9-2): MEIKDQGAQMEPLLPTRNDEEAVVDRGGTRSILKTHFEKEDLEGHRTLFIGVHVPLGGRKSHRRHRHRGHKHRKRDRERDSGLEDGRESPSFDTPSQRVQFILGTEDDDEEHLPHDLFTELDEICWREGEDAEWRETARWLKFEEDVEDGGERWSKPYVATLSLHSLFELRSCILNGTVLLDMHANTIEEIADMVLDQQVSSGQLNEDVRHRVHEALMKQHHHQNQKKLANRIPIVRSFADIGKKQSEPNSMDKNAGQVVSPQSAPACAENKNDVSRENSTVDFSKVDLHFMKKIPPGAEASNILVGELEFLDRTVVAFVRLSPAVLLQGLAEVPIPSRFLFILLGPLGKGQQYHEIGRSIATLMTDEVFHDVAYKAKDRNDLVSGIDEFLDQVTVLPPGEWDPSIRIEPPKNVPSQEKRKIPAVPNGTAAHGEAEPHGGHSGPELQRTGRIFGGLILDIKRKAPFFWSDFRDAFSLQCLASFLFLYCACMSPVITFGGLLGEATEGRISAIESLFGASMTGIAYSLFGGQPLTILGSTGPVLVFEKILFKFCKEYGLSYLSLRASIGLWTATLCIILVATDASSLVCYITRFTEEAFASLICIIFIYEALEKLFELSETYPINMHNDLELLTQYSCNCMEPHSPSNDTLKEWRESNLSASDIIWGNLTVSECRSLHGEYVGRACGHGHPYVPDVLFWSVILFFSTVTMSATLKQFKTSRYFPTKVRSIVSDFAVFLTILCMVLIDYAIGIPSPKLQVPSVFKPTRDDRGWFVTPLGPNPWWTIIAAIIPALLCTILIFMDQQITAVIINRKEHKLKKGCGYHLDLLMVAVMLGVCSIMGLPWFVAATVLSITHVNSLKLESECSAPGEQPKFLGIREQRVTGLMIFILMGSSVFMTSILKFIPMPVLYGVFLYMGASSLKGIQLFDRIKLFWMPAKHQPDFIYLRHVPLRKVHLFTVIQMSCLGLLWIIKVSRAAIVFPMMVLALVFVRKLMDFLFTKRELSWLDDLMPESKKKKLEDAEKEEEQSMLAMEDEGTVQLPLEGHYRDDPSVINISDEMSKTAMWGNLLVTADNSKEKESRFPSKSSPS
Protocol: (§1) The coding sequence of NCBE in pSD5 was linearized by digestion with FspI and in vitro transcribed with SP6 RNA polymerase as previously described (Wang, C -Z. et al., Biochem. Biophys. Res. Commun., 220:196-202(1996)). Defolliculated oocytes were injected with NCBE cRNA (50 nl, 0.5 μg/μl) or water and incubated in 1×MBS medium (88 mM NaCl, 1 mM KCl, 0.8 mM MgCl2, 0.4 mM CaCl2, 0.3 mM Ca(NO3)2, 2.4 mM NaHCO3 and 7.5 mM Tris, pH 7.4) for 3-5 days at 18° C. before the studies. The oocytes were preincubated for one hr at 18° C. in the standard solution (100 mM NaCl, 2 mM KCl, 1 mM MgCl2, 1 mM CaCl2, and 8 mM NaHCO3, pH 7.4).
(§2) For studies of dependency on extracellular Na^+concentration, the oocytes were then incubated in 1.4 ml of either 1, 10, 30 or 100 mM Na^+solution bubbled with 1.5% CO2, pH 7.4 with 0.074 MBq of ^22Na+ (NEN™ Life Science Products, Boston, Mass.). In each solution, the Na^+in the standard solution was substituted with an equal molar amount of choline. A ten μl aliquot was removed from the incubation solution for later determination of ^22Na^+-specific activity. […]
(§3) The present inventors also examined the effect of DIDS, an inhibitor of anion-transporter, on ^22Na^+uptake. Expression was assessed in the absence or presence of 0.3 mM DIDS. […]

water-injected oocytes = experiment: 22Na+ uptake in water-injected Xenopus laevis oocytes (control); assay type: cell-based; details: in the presence of 300 μM DIDS, mean ± SE, n=19, 1.6±0.3 in the absence of DIDS
Protocol: as §1, §2, §3

- effect on 22Na+ uptake by NCBE ([1]; 300 μM DIDS, NCBE cRNA-injected oocytes (FIG. 5)): partially inhibit
- 22Na+ uptake ([1]; NCBE cRNA-injected oocytes, in the presence of 300 μM DIDS, 15 min, standard solution, mean ± SE, n=14, 31.4±2.1 in the absence of DIDS): 6.0±0.7 nmol/oocyte/hour
SMILES: O=S(=O)(O)c1cc(N=C=S)ccc1C=Cc1ccc(N=C=S)cc1S(=O)(=O)O [DIDS, 4,4′-diisothiocyanostilbene-2,2′-disulfonic acid]
- 22Na+ uptake (water-injected oocytes): 2.1±0.4 nmol/oocytes/hour
